Reference: patent US20240300914A1, “KC2-Type Lipids” (NanoVation Therapeutics Inc., priority 2021, published 2024)
Values after ≈ are worked out from the molar mass of the structure shown.

Columns and labels:
FVII = settings: mice, siRNA formulations; Jayaraman et al. 2012; cited from earlier work
[1] = tested on: 22Rv1 cells modified to stably express luciferase; assay: Luciferase knockdown by siRNA-LNPs in 22Rv1 cells; type: cell-based; settings: Homo sapiens; siRNA-LNP 50/10/38.5/1.5, N/P 3; 22Rv1 luciferase cells; read-out: half maximal effective siRNA concentration (EC50)
Procedure: The LNPs contain 50/10/38.5/1.5 mol % of ionizable lipid/DSPC/chol/PEG-DMG (N/P=3) and the siRNA encodes luciferase.
An siRNA targeted against firefly luciferase purchased from Integrated DNA Technologies (IDT, Coralville, IA) was used to assess ability of LNP to knockdown firefly luciferase in a cell line.
LNP formulations containing the ionizable lipids, nor-KC2 or MC3, DSPC, cholesterol, and PEG-DMG were prepared containing siRNA encoding luciferase. The lipid nanoparticles comprise 50/10/38.5/1.5 mol % of ionizable lipid/DSPC/chol/PEG-DMG and the nitrogen-to-phosphorus ratio (N/P) was 3.

EC50 [1] [µg/mL] | Structure (SMILES) | ED50 for FVII gene silencing (FVII) [mg/kg]
– | CCCCC/C=C\C/C=C\CCCCCCCCC1(CCCCCCCC/C=C\C/C=C\CCCCC)OCC(CCN(C)C)O1 (stereo not drawn) [KC2] | 0.1
0.131 (≈ 0.204 µM) | CCCCC/C=C\C/C=C\CCCCCCCCC(CCCCCCCC/C=C\C/C=C\CCCCC)OC(=O)CCCN(C)C [MC3, dilinoleyl-methyl-4-dimethylaminobutyrate] | –
0.137 (≈ 0.224 µM) | CCCCC/C=C\C/C=C\CCCCCCCC1(CCCCCCC/C=C\C/C=C\CCCCC)OCC(CCN(C)C)O1 (stereo not drawn) [nor-KC2, 2-(2,2-Di((8Z,11Z)-heptadeca-8,11-dien-1-yl)-1,3-dioxolan-4-yl)-N,N-dimethylethan-1-amine] | –
